# Reference: patent US8796302B2 (priority 2004, dated 2014)
# Legend:
# [1] = tested on: TH-IR (dopaminergic) neurons in mesencephalic neuron-glia cultures; test: TH-IR neuron count and morphology in LPS-treated neuron-glia cultures; assay type: cell-based, rat; details: for dendrite network (immunocytochemical analysis): LPS; for attenuation of LPS-induced reduction in the number of TH-IR neurons: 30 min pretreatment
# [2] = tested on: dopaminergic neurons in mesencephalic neuron-enriched cultures; test: [3H]DA uptake in neuron-enriched cultures (direct, conditioned media, reconstituted); assay type: cell-based, rat; details: for DA uptake with 3-HM-treated astroglia conditioned media: 24 h conditioning, % of non-conditioned control, vehicle conditioned 122%
# Description: Mixed-glia cultures were first prepared from brains of 1-day-old Fisher 344 rat pups, as described previously (Liu, et al. 2001). Mechanically dissociated brain cells (5×10^7) were seeded onto 150 cm^2 culture flasks in Dulbecco's modified Eagle's medium containing 10% heat-inactivated FBS, 2 mM L-glutamine, 1 mM sodium pyruvate, 100 μM non-essential amino acids, 50 U/ml penicillin, and 50 μg/ml streptomycin. The cultures were maintained at 37° C. in a humidified atmosphere of 5% CO2 and 95% air, and medium was replenished 4 days after the initial seeding. Upon reaching confluence (usually 12-14 days later), microglia were detached from astroglia by shaking the flasks for 5 hours at 180 rpm. Astroglia were then detached with trypsin-EDTA and seeded in the same culture medium. After five or more consecutive passages, cells were seeded onto 24-well plates (10^5/well) for experiments. Immunocytochemical staining of the astroglia enriched cultures with either anti-GFAP or anti-OX-42 antibody indicated astroglial purity of greater than 98% and less than 2% of microglia contamination.
# Conditioned medium derived from rat primary astroglial cultures treated with vehicle (ACM) or 0.6 mM VPA (ACM-VPA) were harvested after 12, 24 and 48 hours of incubation. Midbrain neuron-enriched cultures seeded in 24-well plates at a density of 5×10^5 cells/well were treated with vehicle, VPA, ACM or ACM-VPA for 7 days. Neurotrophic effect was quantified by [^3H]DA uptake assay.
# Rat mesencephalic neuron-enriched cultures are prepared from dissociated ventral mesencephalic cells from embryonic day 13-14 Fisher 344 rats were seeded first at a density of 5×10^5/well to poly-D-lysine-precoated 24-well culture plates. […] Three days later, the culture medium was replaced with the maintenance medium. Routinely, the seven-day-old neuron-enriched cultures were used for treatment. […] Of the Neu-N immunoractive neurons, 2.7-3.9% was TH-IR neurons.
# To explore whether astroglial cells are also the main target of sodium butyrate-induced neurotrophic effect, we prepared media conditioned by incubation of astroglial cultures in the absence or presence 0.6 mM sodium butyrate. Conditioned medium derived from rat primary astroglial cultures treated with vehicle (ACM) or 0.6 mM sodium butyrate (ACM-Sodium butyrate) were harvested after 48 hours of incubation. Midbrain neuron-enriched cultures seeded in 24-well plates at a density of 5×10^5 cells/well were treated with vehicle, sodium butyrate, ACM or ACM-Sodium butyrate for 7 days. Seven days after treatment, neurotrophic effect for dopaminergic neurons was assessed by [^3H]DA uptake assays.
# Various concentrations of 3-HM (0.1-5 μM) or vehicle were added to the following different cell cultures: neuron-enriched cultures (A); reconstituted cultures by adding 10% and 20% (5×10^4/well and 1×10^5/well) of microglia to the neuron-enriched cultures (B); reconstituted cultures by adding 40% and 50% (2×10^5/well and 2.5×10^5/well) of astroglia to the neuron-enriched cultures (C). Cultures are prepared as described in Example 25. The [^3H]DA uptake measurements were performed […] after treatment. Results were expressed as a percentage of the vehicle-treated control cultures and were the mean±SE from five (A) and four (B,C) independent experiments in triplicate. *P<0.05 and **P, 0.001 compared with the vehicle-treated control cultures. #P<0.05 compared with the augmented cultures with 40% astroglia. N, neuron-enriched cultures; N+10% (20%) MG: 10% (20%) of microglia were added back to the neuron-enriched cultures; N+40% (50%) AS: 40% (50%) of astroglia were added back to the neuron-enriched cultures.
# To confirm the possible role of astroglia in the neurotrophic effect of 3-HM, conditioned media from astroglia-enriched cultures (prepared as described above) treated with either 3-HM (1-5 μM) or vehicle for 24 hours were prepared. […]
# [3] = tested on: dopaminergic neurons in rat primary mesencephalic neuron-glia cultures; test: DA uptake / TH-IR count in neuron-glia cultures without toxin (spontaneous DA neuronal death, neurotrophic effect); assay type: cell-based
# Description: In Example 23, [^3H]DA uptake assay and immunohistochemical analysis for TH-IR neurons were used to assess the viability of DA neurons in rat primary mesencephalic neuron-glia cultures in which approximately 1% of the neurons are dopaminergic. [^3H]DA uptake assays were performed as described in Example 1.
# Rat primary mesencephalic neuron-glia cultures were prepared from the ventral mesencephalic tissues of embryonic day 13-14 Fisher 344 rats. Dissociated cells were seeded at a density of 5×10^5/well to poly-D-lysine-precoated 24-well plates. Cells were maintained at 37° C. in a humidified atmosphere of 5% CO2 and 95% air, in minimal essential medium containing 10% fetal bovine serum (FBS), 10% horse serum, 1 gm/l glucose, 2 mM L-glutamine, 1 mM sodium pyruvate, 100 μM non-essential amino acids, 50 U/ml penicillin, and 50 μg/ml streptomycin. Unless otherwise indicated, seven-day-old cultures were used for treatment.
# Seven days after seeding, each well was treated with indicated concentration of VPA or its vehicle. Seven days after treatment, the viability of dopaminergic neurons was assessed by [^3H]DA uptake assays. Quantified results are expressed as mean±SEM of percentage of vehicle-treated cultures from three experiments performed in duplicate. *, p<0.05 compared with the corresponding vehicle-treated control cultures.
# Next, the rat primary mesencephalic neuron-glia cultures were treated with 0.6 mM VPA for various times to determine the treatment time-dependency. Rat primary mesencephalic neuron-glia cultures in a 24-well plate were treated with 0.6 mM VPA or its vehicle for indicated time 7 days after seeding. The viability of dopaminergic neurons was assessed by [^3H]DA uptake assays, shown in FIG. 37 or counting of TH-IR neurons, shown in FIG. 38. Quantified results are expressed as mean±SEM of percentage of vehicle-treated control cultures from three experiments performed in duplicate. *, p<0.05 compared with the corresponding vehicle-treated control cultures. […] VPA time-dependently induces survival-promoting effects against spontaneous DA neuronal death in rat primary mesencephalic neuron-glia cultures.
# Rat primary mesencephalic neuron-glia cultures seeded in a 24-well culture plate at density of 5×10^5 per well were treated with indicated concentrations of sodium butyrate or its vehicle 7 days after seeding. The viability of dopaminergic neurons was assessed by DA uptake assays 7 days after sodium butyrate addition.
# Mesencephalic neuron-glia cultures, prepared as described above, were pretreated with vehicle or 3-HM (1-5 μM) before the treatment of LPS (10 ng/ml). Seven days later, the degeneration of dopaminergic neurons was determined by the functional assay of [^3H]DA uptake and by the morphometric measurement of dopaminergic neurons following immunostaining with an anti-TH antibody. [^3H]DA and immunostaining are performed as described above.
# [4] = tested on: dopaminergic neurons in rat primary mesencephalic neuron-glia cultures; test: [3H]DA uptake in LPS-treated mesencephalic neuron-glia cultures; assay type: cell-based; details: for DA uptake, post-treatment with DM: LPS 20 ng/ml 12 h then removed
smiles,measurement,setting,value
"COc1ccc2c(c1)[C@@]13CCCC[C@H]1[C@@H](C2)N(C)CC3 [DM, d-3-methoxy-N-methylmorphinan]",dendrite network (immunocytochemical analysis),[1]; DM 10^−5 M and 10^−14 M,more elaborate dendrite network
same,attenuation of LPS-induced reduction in the number of TH-IR neurons,"[1]; DM 10^−5 M, LPS 10 ng/ml",37%
same,dendrite network (immunocytochemical analysis),[1]; DM 10^−10 M,failed to show improvement
same,dopaminergic neuron degeneration (TH-IR neuron number),"[1]; DM 10^−10 M, LPS 10 ng/ml",no protective effects
same,attenuation of LPS-induced reduction in the number of TH-IR neurons,"[1]; DM 10^−14 M, LPS 10 ng/ml",28%
same,neurotrophic effect of DM-treated astroglia conditioned media,"[2]; DM 5 μM, vs vehicle-treated conditioned cultures",failed to exhibit any neurotrophic effect
same,neurotrophic effect of compound alone in neuron-glia cultures,[3],not observed
same,LPS-induced decrease in [3H]-dopamine uptake,"[4]; DM 10^−13 and 10^−14 M, 30 min pretreatment, LPS 10 ng/ml, 7 days",equipotent neuroprotective effect
same,"DA uptake, post-treatment with DM",[4]; DM 10^−5 and 10^−14 M post-treatment,showed a protective effect
same,"DA uptake, post-treatment with DM",[4]; DM 10^−10 M post-treatment,but not at 10^−10 M
"Oc1ccc2c(c1)[C@@]13CCCC[C@H]1[C@@H](C2)NCC3 [3-HM, 3-hydroxymorphinan]",number of dopaminergic neurons,"[1]; 3-HM 5 μM pretreatment, LPS 10 ng/ml, LPS alone reduced by 51%",97 % of the vehicle-treated control cultures
same,average length of dopaminergic neuronal neurites,"[1]; 3-HM pretreatment, LPS 10 ng/ml, LPS alone 43%",110 % of the vehicle-treated control cultures
same,DA uptake with 3-HM-treated astroglia conditioned media,"[2]; 3-HM 1 μM, 10 days",151.3%
same,DA uptake with 3-HM-treated astroglia conditioned media,"[2]; 3-HM 2.5 μM, 10 days",160.9%
same,DA uptake with 3-HM-treated astroglia conditioned media,"[2]; 3-HM 5 μM, 10 days",197.8%
same,DA uptake capacity in neuron-enriched cultures,"[2]; 3-HM 0.1-5 μM, 10 days",failed to show a significant increase in the DA uptake capacity
same,"DA uptake, neuron-enriched cultures + microglia","[2]; 10% or 20% of microglia added back, 3-HM-treated, 10 days",failed to increase DA uptake
same,"capacity of DA uptake, neuron-enriched cultures + astroglia","[2]; 40% of astroglia added back, 3-HM-treated, 10 days",135.8%
same,"capacity of DA uptake, neuron-enriched cultures + astroglia","[2]; 50% of astroglia added back, 3-HM-treated, 10 days",158.3%
same,increase of DA uptake capacity vs vehicle-treated control,"[3]; 3-HM 1-5 μM alone, 7 days",20-60%
same,neurotrophic effect of compound alone in neuron-glia cultures,[3],significant neurotrophic effect
same,LPS-induced decrease in DA uptake,"[4]; 3-HM 5 μM, LPS 10 ng/ml, 7 days",almost back to the vehicle-treated control values
"CCCC(CCC)C(=O)O [VPA, Valproic acid]","DA neuron morphology (anti-TH), VPA alone",[1]; VPA 0.6 mM alone,promoted neurite formation and inter-neuronal networks
same,TH immunostaining in cell bodies and neuronal processes,"[1]; VPA 0.6 mM, alone or with LPS, vs vehicle control",enhanced the TH immunostaining
same,LPS-induced decrease of TH-ir neurons and loss of neuronal process (morphology),"[1]; VPA 0.2-0.6 mM pretreatment, LPS 20 ng/ml",reversed by VPA pretreatment in a dose-dependent manner
same,LPS-induced morphological changes of DA neurons,"[1]; VPA 0.2 to 0.6 mM, 48 hours pretreatment, LPS 10 ng/ml, 7 days",prevented by VPA pretreatment
same,LPS-induced loss of TH-ir neurons,"[1]; VPA pretreatment 48 h, significant effect at 0.2, 0.4 and 0.6 mM, LPS 20 ng/ml 72 h",prevented by VPA pretreatment in a concentration-dependent manner
same,increase in DA uptake,"[2]; neuron-enriched cultures, 7 days, drug 0.6 mM or conditioned medium",less than 2 fold
same,capacity of [3H]DA uptake vs vehicle-treated control,[3]; VPA 0.6 mM for 7 days,marked increase
same,number of TH-IR neurons vs vehicle-treated control,[3]; VPA 0.6 mM for 7 days,marked increase
same,spontaneous DA neuronal death (DA uptake),"[3]; VPA 0.6 mM, 7 days",significantly protected DA neurons from spontaneous neuronal death
same,"DA uptake levels, VPA alone","[4]; VPA 0.6 mM alone, no LPS",did not affect DA uptake levels
same,neuroprotection against LPS neurotoxicity (DA uptake),"[4]; VPA 0.6 mM, 6 hours pretreatment, LPS 10 ng/ml",failed to induce a significant effect
same,neuroprotection against LPS neurotoxicity (DA uptake),"[4]; VPA 0.6 mM, 12 hours pretreatment, LPS 10 ng/ml",complete neuroprotection
same,neuroprotection against LPS neurotoxicity (DA uptake),"[4]; VPA 0.6 mM, 48 hours pretreatment, LPS 10 ng/ml",further increase in DA uptake levels
same,LPS-induced decrease in DA uptake,"[4]; VPA 0.6 mM, 48 h pretreatment, LPS 20 ng/ml",completely restored
same,DA uptake levels vs untreated control,"[4]; VPA 0.6 mM, alone or with LPS 10 ng/ml",significantly higher than those in the untreated control
same,LPS-induced reduction of DA uptake,"[4]; VPA 0.05-0.6 mM, 48 h pretreatment, LPS 20 ng/ml 3 days",concentration-dependently prevented
same,LPS-induced loss of DA uptake capacity,"[4]; VPA various doses, 48 hours pretreatment, LPS 10 ng/ml 5 days",robustly blocked
